Measured values: patent US12329755B2, “Bromodomain inhibitors to target therapy-resistant cancer” (University of Tennessee Research Foundation, priority 2019, dated 2025)

Columns and labels:
X16 BTIC = X16 BTIC mouse flank xenografts; format: in vivo, mice; details: combined with TMZ, 8 weeks
Procedure: FIG. 1F is a graph showing the effect of temozolomide (TMZ) on the tumorigenicity of control (black portion of bars) and Brahma-related gene-1-knock-down (BRG1-KD) (grey portion of bars) brain-tumor initiating cells (BTICs) after injection of 10^6 tumor cells into the flanks of immunodeficient mice. Live animal imaging preformed at weekly intervals. After confirming tumor initiation by live animal imaging, mice were treated with TMZ by interperitoneal (IP) injection (10 milligrams per kilogram (mg/kg) on alternate days). The reduction in tumor volume was calculated at 1 week (left) and 2 weeks (right) post-treatment. *p≤0.05.
FIG. 5 is a graph showing the effect of Brahma-related gene-1 bromodomain inhibitors (BRIs), PFI-3 and the PFI-3 analogs (PAs) IV-073, IV-077, and IV-085, on the anticancer activity of temozolomide (TMZ) on brain-tumor initiating-cell (BTIC) tumor growth. BTICs (10^6 cells) from X16 glioblastoma were injected into the flanks of immunodeficient mice. After confirming tumor initiation by live animal imaging, mice were treated with PFI-3 or a PA (0.5 microgram per mouse (μg/mouse)) and TMZ (0.25 mg/mouse) by intrarperitoneal (IP) injection on alternate days. The reduction in tumor volume was calculated at 2 weeks post-treatment.
(§1) BRG1 loss sensitizes BTICs to TMZ in vitro and in vivo: Although the alkylating agent TMZ is front-line chemotherapy in the treatment of GBM, a significant clinical problem is intrinsic or adaptive resistance to TMZ.^63 To evaluate TMZ sensitivity, GBM6 or X16 BTICs were treated with 300 μM or 500 μM TMZ, and cell proliferation was determined. […] Since BRG1 has been implicated in DNA double-strand break repair,^65-67 it was hypothesized that BRG1 loss in BTICs would sensitize BTICs to TMZ. […] To determine whether BRG1-KD sensitized BTICs to TMZ in vivo, animal studies were conducted with control (scrambled shRNA) and BRG1-KD X16 BTICs injected into the flanks of NSG mice. After tumor initiation was confirmed by live animal imaging, mice were treated with TMZ. […] Thus, despite X16 BRG1-KD BTICs producing larger tumors, the tumors were sensitized to TMZ therapy.
In contrast, all mice with single drug treatment had to be euthanized because the tumors had reached […] by 3 weeks post-treatment.

X16 BTICs [1] = assay: cell proliferation of X16 BTICs; format: cell-based, human; details: PFI-3 alone
Procedure: FIG. 1A is a pair of graphs showing the effect of temozolomide (TMZ) on the proliferation of brain-tumor initiating cells (BTICs) obtained from two independent glioblastoma tumors, GBM6 (left) and X16 (right). Relative proliferation is shown for cells treated with 300 micromolar (μM) TMZ or 600 μM TMZ, as well as for untreated cells. *p≤0.05.
as §1, with “therapy. […]” for “therapy.”

X16 BTICs [2] = details: cited from earlier work

## O=C(/C=C/N1C[C@H]2C[C@@H]1CN2c1ccccn1)c1ccccc1O [PFI-3, (E)-1-(2-hydroxyphenyl)-3-((1R,4R)-5-(pyridin-2-yl)-2,5-diazabicyclo[2.2.1]heptan-2-yl)prop-2-en-1-one]
X16 BTIC
  tumors after treatment for 8 weeks: less dramatic effect
X16 BTICs [1]
  effect on BTIC proliferation: only a slight growth inhibitory effect
X16 BTICs [2]; X16 BTICs, PFI-3 treatment
  sensitization to Carmustine: sensitized
X16 BTICs [2]; combination of TMZ and PFI-3, versus either agent alone
  effect on X16 BTIC proliferation: markedly greater effect on X16 BTIC proliferation than either agent alone
